IC50 data for three compounds are collected here from US20250109146A1, “BRIDGED RING-SUBSTITUTED HETEROARYL-PYRAN DERIVATIVE, AND USE THEREOF” (priority 2022, published 2025).

Structures are written as SMILES. Counter-ions that a name gives are not always drawn.

The IC50 is the concentration needed to halve the response being measured.

In assay [1] the test system is p-ERK in KRAS^G12D mutant AsPC-1 cells. The assay can be described thus: Assay of p-ERK inhibition in AsPC-1 cells (HTRF). To be noted: HTRF method, 1 hour incubation with compound. The format is cell-based.
Procedure: • 1) ASPC-1 cells were inoculated in a transparent 96-well cell culture plate, and each well contained 80 μL of cell suspension and 8000 cells. The cell plate was inoculated in a carbon dioxide incubator at 37° C. overnight; • 2) After completion of the incubation, the cell supernatant was discarded. […] 2 μL of the compound was weighed and added to 78 μL of a cell starvation medium. After the mixture was mixed thoroughly, 20 μL of the solution of compound was weighed and added to the corresponding well of the cell plate. […] 50 μL of cell lysate was added to each well. […] The mixture was incubated at room temperature for 4 hours; • 7) After completion of the incubation, HTRF was read with multi-label analyzer: excitation: 320 nm, emission: 615 nm, 665 nm.
The test system of assay [2] is p-ERK in KRAS^G12D mutant AGS cells. The assay can be described thus: Assay of p-ERK inhibition in AGS cells (HTRF). Conditions: Homo sapiens, 3 hours incubation with compound. The format is cell-based. The procedure: • 1) AGS cells were inoculated in a transparent 96-well cell culture plate, and each well contained 80 μL of cell suspension and 10000 cells. […] 80 μL of medium containing 0.02% serum was added to each well. The cell plate was incubated in a carbon dioxide incubator at 37° C. overnight; • 3) 2 μL of the compound was weighed and added to 78 μL of the cell medium. After the mixture was mixed thoroughly, 20 μL of the solution of compound was weighed and added to the corresponding well of the cell plate. […] 50 μL of 1× cell lysate was added to each well. […] The mixture was incubated at room temperature for at least 4 hours; • 7) After completion of the incubation, HTRF was read with multi-label analyzer: excitation: 320 nm, emission: 615 nm, 665 nm; • 8). IC50 of the compound to be assayed was calculated. […]
• 1) AGS cells were inoculated in a transparent 96-well cell culture plate, and each well contained 80 μL of cell suspension and 10000 cells. […] The mixture was incubated at room temperature for at least 4 hours; • 7) After completion of the incubation, HTRF was read with multi-label analyzer: excitation: 320 nm, emission: 615 nm, 665 nm; • 8). IC50 of the compound to be assayed was calculated.
A general note: Time-resolved FRET reads energy transfer from a long-lived donor to a nearby acceptor.

Take `CC#Cc1cc(N)c(F)c([C@H]2Cc3nc(OC[C@]45CCCN4C/C(=C\F)C5)nc(N4CC5CCC(C4)N5)c3CO2)c1C(F)(F)F` [Compound 11 formate]: the IC50 in assay [1] amounted to 0.9 nM.

As for `CC#Cc1cc(N)c(F)c([C@@H]2Cc3nc(OC[C@]45C=CCN4CCC5)nc(N4CC5CCC(C4)N5)c3CO2)c1C(F)(F)F` [Compound 10 hydrochloride], the IC50 in assay [1] stood at 1.1 nM.

As for `C#Cc1c(F)ccc2cc(N)cc(C3Cc4nc(OC[C@@]56CCCN5C[C@H](F)C6)nc(N5CC6CCC(C5)N6)c4CO3)c12` (stereo partly drawn) [Compound 3 hydrochloride], the IC50 in assay [2] is 64.6 nM.
